Experimental data as given in ChEMBL document CHEMBL4382229, “Benzofuran derivatives and their anti-tubercular, anti-bacterial activities” (Eur J Med Chem, 2019).
Values after ≈ are worked out from the molar mass of the structure shown.

How the values were obtained:
Bacillus subtilis [1] = assay: Antibacterial activity against Bacillus subtilis NCIM 2439 assessed as zone of inhibition at 1 ug/ml after 24 hrs by agar diffusion method; type: functional; settings: NCIM 2439, 24 h, read-out: IZ
Escherichia coli [2] = assay: Antibacterial activity against Escherichia coli NCIM 2064 assessed as zone of inhibition at 1 ug/ml after 24 hrs by agar diffusion method; type: functional; settings: NCIM 2064, 24 h, read-out: IZ
Pseudomonas aeruginosa [3] = assay: Antibacterial activity against Pseudomonas aeruginosa ATCC 27953 assessed as diameter of inhibition zone at 5 ug/ml after 24 hrs by agar disc diffusion method; type: functional; settings: ATCC 27953, 24 h, read-out: IZ
Staphylococcus aureus [4] = assay: Antibacterial activity against Staphylococcus aureus NCIM 2079 assessed as zone of inhibition at 1 ug/ml after 24 hrs by agar diffusion method; type: functional; settings: NCIM 2079, 24 h, read-out: IZ
Escherichia coli [5] = assay: Antibacterial activity against Escherichia coli assessed as diameter of inhibition zone at 250 ug/ml after 24 hrs by disc diffusion method; type: functional; settings: read-out: DIZ
Pseudomonas aeruginosa [6] = assay: Antibacterial activity against Pseudomonas aeruginosa NCIB 8650 assessed as zone of inhibition at 1 ug/ml after 24 hrs by agar diffusion method; type: functional; settings: NCIB 8650, 24 h, read-out: IZ
Staphylococcus aureus [7] = assay: Antibacterial activity against Staphylococcus aureus assessed as diameter of inhibition zone at 250 ug/ml after 24 hrs by disc diffusion method; type: functional; settings: read-out: DIZ
Escherichia coli [8] = assay: Antibacterial activity against Escherichia coli ATCC 25922 assessed as diameter of inhibition zone at 5 ug/ml after 24 hrs by agar disc diffusion method; type: functional; settings: ATCC 25922, 24 h, read-out: IZ
Proteus vulgaris [9] = assay: Antibacterial activity against Proteus vulgaris after 24 hrs; type: functional
Proteus vulgaris [10] = assay: Potency index, ratio of norfloxacin MIC to test compound MIC for Proteus vulgaris; type: functional
[11] = test system: Mycobacterium tuberculosis; assay: Antitubercular activity against Mycobacterium tuberculosis Erdman infected in BALB/c mouse assessed as reduction in bacterial load in spleen at 25 mg/kg, po administered once daily via gavage starting from 27 days post infection for 5 consecutive days per week for 4 weeks; type: functional
[12] = test system: Mycobacterium tuberculosis; assay: Antitubercular activity against Mycobacterium tuberculosis H37Rv infected in BALB/c mouse assessed as reduction in bacterial load in lungs at 10 mg/kg, po administered once daily via gavage for 5 consecutive days per week for 2 weeks; type: functional
[13] = test system: Mycobacterium tuberculosis; assay: Antitubercular activity against Mycobacterium tuberculosis Erdman infected in BALB/c mouse assessed as reduction in bacterial load in lungs at 25 mg/kg, po administered once daily via gavage starting from 27 days post infection for 5 consecutive days per week for 4 weeks; type: functional
[14] = test system: Mycobacterium tuberculosis; assay: Antitubercular activity against Mycobacterium tuberculosis H37Rv infected in BALB/c mouse assessed as reduction in bacterial load in lungs at 200 mg/kg, po administered once daily via gavage for 5 consecutive days per week for 2 weeks; type: functional
[15] = test system: Mycobacterium tuberculosis; assay: Antitubercular activity against Mycobacterium tuberculosis Erdman infected in BALB/c mouse assessed as reduction in bacterial load in lungs at 300 mg/kg, po administered once daily via gavage starting from 27 days post infection for 5 consecutive days per week for 4 weeks; type: functional
[16] = test system: Mycobacterium tuberculosis; assay: Antitubercular activity against Mycobacterium tuberculosis Erdman infected in BALB/c mouse assessed as reduction in bacterial load in spleen at 300 mg/kg, po administered once daily via gavage starting from 27 days post infection for 5 consecutive days per week for 4 weeks; type: functional
[17] = test system: Mycobacterium tuberculosis; assay: microbe, parasite or virus in culture; settings: MC2 7000, 144 h
Description: Antimycobacterial activity against Mycobacterium tuberculosis MC2 7000 after 6 days by alamar blue assay

Bacillus spizizenii [18] = assay: Antibacterial activity against Bacillus subtilis ATCC 6633 after 24 hrs by broth dilution method; type: functional
Staphylococcus aureus [19] = assay: Antibacterial activity against Staphylococcus aureus ATCC 29213 after 24 hrs by broth dilution method; type: functional
Staphylococcus aureus [20] = assay: Antibacterial activity against Staphylococcus aureus ATCC 6538 after 24 hrs by broth dilution method; type: functional
Escherichia coli [21] = assay: Antibacterial activity against Escherichia coli ATCC 11229 after 24 hrs by broth dilution method; type: functional
Proteus vulgaris [22] = assay: Antibacterial activity against Proteus vulgaris […] after 24 hrs by broth dilution method; type: functional
Pseudomonas aeruginosa [23] = assay: Antibacterial activity against Pseudomonas aeruginosa assessed as zone of inhibition at 50 ug/ml after 3 days by filter paper disc method; type: functional; settings: 72 h, read-out: IZ
Staphylococcus aureus [24] = assay: Antibacterial activity against Staphylococcus aureus assessed as zone of inhibition at 1 mg/ml after 32 hrs by agar-well diffusion method; type: functional; settings: read-out: IZ
Staphylococcus aureus [25] = assay: Antibacterial activity against Staphylococcus aureus ATCC 25923 after 24 hrs; type: functional; settings: ATCC 25923, 24 h
Pseudomonas aeruginosa [26] = assay: Antibacterial activity against Pseudomonas aeruginosa assessed as zone of inhibition at 1 mg/ml after 32 hrs by agar-well diffusion method; type: functional; settings: read-out: IZ
Escherichia coli [27] = assay: Antibacterial activity against Escherichia coli assessed as zone of inhibition at 50 ug/ml after 3 days by filter paper disc method; type: functional; settings: 72 h, read-out: IZ
Bacillus subtilis [28] = assay: Antibacterial activity against Bacillus subtilis assessed as zone of inhibition at 50 ug/ml after 3 days by filter paper disc method; type: functional; settings: 72 h, read-out: IZ
Staphylococcus aureus [29] = assay: Antibacterial activity against Staphylococcus aureus assessed as zone of inhibition at 50 ug/ml after 3 days by filter paper disc method; type: functional; settings: 72 h, read-out: IZ
Escherichia coli [30] = assay: Antibacterial activity against Escherichia coli ATCC 25922 after 24 hrs; type: functional; settings: ATCC 25922, 24 h
Bacillus spizizenii [31] = assay: Antibacterial activity against Bacillus subtilis ATCC 6633 after 24 hrs; type: functional; settings: ATCC 6633, 24 h
Escherichia coli [32] = assay: Antibacterial activity against Escherichia coli assessed as zone of inhibition at 1 mg/ml after 32 hrs by agar-well diffusion method; type: functional; settings: read-out: IZ
Klebsiella pneumoniae = assay: Antibacterial activity against Klebsiella pneumoniae assessed as zone of inhibition at 1 mg/ml after 32 hrs by agar-well diffusion method; type: functional; settings: read-out: IZ
Pseudomonas aeruginosa [33] = assay: Antibacterial activity against Pseudomonas aeruginosa MTCC 1034 after 24 hrs by broth dilution method; type: functional; settings: MTCC 1034, 24 h
Escherichia coli [34] = assay: Potency index, ratio of streptomycin MIC to test compound MIC for Escherichia coli MTCC 1559; type: functional
Bacillus subtilis [35] = assay: Potency index, ratio of streptomycin MIC to test compound MIC for Bacillus subtilis MTCC 1134; type: functional
Bacillus subtilis [36] = assay: Antibacterial activity against Bacillus subtilis MTCC 1134 after 24 hrs by broth dilution method; type: functional; settings: MTCC 1134, 24 h
Escherichia coli [37] = assay: Antibacterial activity against Escherichia coli MTCC 1559 after 24 hrs by broth dilution method; type: functional; settings: MTCC 1559, 24 h
Pseudomonas aeruginosa [38] = assay: Potency index, ratio of streptomycin MIC to test compound MIC for Pseudomonas aeruginosa MTCC 1034; type: functional
Pseudomonas aeruginosa [39] = assay: Antibacterial activity against Pseudomonas aeruginosa by broth dilution method; type: functional
Bacillus subtilis [40] = assay: Antibacterial activity against Bacillus subtilis by broth dilution method; type: functional
Staphylococcus aureus [41] = assay: Antibacterial activity against Staphylococcus aureus by broth dilution method; type: functional
Escherichia coli [42] = assay: Antibacterial activity against Escherichia coli by broth dilution method; type: functional
Bacillus subtilis [43] = assay: Potency index, ratio of ciprofloxacin MIC to test compound MIC for Bacillus subtilis; type: functional
Escherichia coli [44] = assay: Potency index, ratio of ciprofloxacin MIC to test compound MIC for Escherichia coli; type: functional
Staphylococcus aureus [45] = assay: Potency index, ratio of ciprofloxacin MIC to test compound MIC for Staphylococcus aureus; type: functional

Compound: O=C(N[C@H](CO)[C@H](O)c1ccc([N+](=O)[O-])cc1)C(Cl)Cl [CHLORAMPHENICOL]
- zone of inhibition at 1 µg/mL (Bacillus subtilis [1]): 21 to 32 mm
- zone of inhibition at 1 µg/mL (Escherichia coli [2]): 21 to 32 mm
- zone of inhibition at 5 µg/mL (Pseudomonas aeruginosa [3]): 21 to 32 mm
- zone of inhibition at 1 µg/mL (Staphylococcus aureus [4]): 21 to 32 mm
- zone of inhibition at 250 µg/mL (Escherichia coli [5]): 17 mm
- zone of inhibition at 1 µg/mL (Pseudomonas aeruginosa [6]): 21 to 32 mm
- zone of inhibition at 250 µg/mL (Staphylococcus aureus [7]): 27 mm
- zone of inhibition at 5 µg/mL (Escherichia coli [8]): 21 to 32 mm

Compound: O=C1Nc2c(cccc2[N+](=O)[O-])/C1=N/NC(=O)c1cc2ccccc2o1
- MIC (Proteus vulgaris [9]): 31.2 µg/mL (≈ 89.2 µM)
- Ratio (Proteus vulgaris [10]): 2

Compound: NNC(=O)c1ccncc1 [ISONIAZID]
- Activity [11]: 2.5 log10CFU
- Activity [12]: 6.7 log10CFU
- Activity [13]: 1.1 log10CFU

Compound: CNC(=O)c1c(-c2ccc(O)cc2)oc2ccc(O)c(CN3CCCCC3)c12
- Activity [14]: 6.8 log10CFU
- Activity [15]: 0.9 log10CFU
- Activity [16]: 2.2 log10CFU
- MIC [17]: 0.09 µM (≈ 0.0342 µg/mL)

Compound: GENTAMICIN
- MIC (Bacillus spizizenii [18]): 1.62 to 3.12 µg/mL
- MIC (Staphylococcus aureus [19]): 1.6 to 3.1 µg/mL
- MIC (Staphylococcus aureus [20]): 1.62 to 3.12 µg/mL
- MIC (Escherichia coli [21]): 1.62 to 3.12 µg/mL
- MIC (Proteus vulgaris [22]): 1.62 to 3.12 µg/mL

Compound: CC1(C)S[C@@H]2[C@H](NC(=O)[C@H](N)c3ccccc3)C(=O)N2[C@H]1C(=O)O [AMPICILLIN]
- zone of inhibition at 50 µg/mL (Pseudomonas aeruginosa [23]): 10 to 30 mm
- MIC (Proteus vulgaris [9]): 3.9 µg/mL (≈ 11.2 µM)
- zone of inhibition at 1000 µg/mL (Staphylococcus aureus [24]): 20 to 28 mm
- MIC (Staphylococcus aureus [25]): 0.48 µg/mL (≈ 1.37 µM)
- zone of inhibition at 1000 µg/mL (Pseudomonas aeruginosa [26]): 20 to 28 mm
- zone of inhibition at 50 µg/mL (Escherichia coli [27]): 10 to 30 mm
- zone of inhibition at 50 µg/mL (Bacillus subtilis [28]): 10 to 30 mm
- zone of inhibition at 50 µg/mL (Staphylococcus aureus [29]): 10 to 30 mm
- MIC (Escherichia coli [30]): 3.9 µg/mL (≈ 11.2 µM)
- MIC (Bacillus spizizenii [31]): 3.9 µg/mL (≈ 11.2 µM)
- zone of inhibition at 1000 µg/mL (Escherichia coli [32]): 20 to 28 mm
- zone of inhibition at 1000 µg/mL (Klebsiella pneumoniae): 20 to 28 mm

Compound: Cc1ccc(-c2cc(-c3cc4ccccc4o3)nc(N)n2)s1
- MIC (Pseudomonas aeruginosa [33]): 4.32 to 6.32 µg/mL (≈ 14.1 to 20.6 µM)
- Ratio (Escherichia coli [34]): >3
- Ratio (Bacillus subtilis [35]): >3
- MIC (Bacillus subtilis [36]): 4.32 to 6.32 µg/mL (≈ 14.1 to 20.6 µM)
- MIC (Escherichia coli [37]): 4.32 to 6.32 µg/mL (≈ 14.1 to 20.6 µM)
- Ratio (Pseudomonas aeruginosa [38]): >3

Compound: O=C(c1ccc(Br)cc1)c1oc2ccc(Br)cc2c1/C=C/c1c[nH]c2ccccc12
- MIC (Bacillus spizizenii [18]; ATCC 6633, 24 h): 3.12 to 6.25 µg/mL (≈ 6 to 12 µM)
- MIC (Staphylococcus aureus [20]; ATCC 6538, 24 h): 3.12 to 6.25 µg/mL (≈ 6 to 12 µM)
- MIC (Escherichia coli [21]; ATCC 11229, 24 h): 3.12 to 6.25 µg/mL (≈ 6 to 12 µM)
- MIC (Proteus vulgaris [22]): 3.12 to 6.25 µg/mL (≈ 6 to 12 µM)

Compound: O=C1/C(=C\c2cn(-c3ccccc3)nc2-c2cccs2)Oc2cc(Cl)ccc21
- zone of inhibition at 50 µg/mL (Pseudomonas aeruginosa [23]): 13 to 33 mm
- zone of inhibition at 50 µg/mL (Escherichia coli [27]): 13 to 33 mm
- zone of inhibition at 50 µg/mL (Bacillus subtilis [28]): 13 to 33 mm
- zone of inhibition at 50 µg/mL (Staphylococcus aureus [29]): 13 to 33 mm

Compound: O=C1Nc2ccccc2/C1=N/NC(=O)c1cc2ccccc2o1
- MIC (Proteus vulgaris [9]): 250 to 500 µg/mL (≈ 819 to 1640 µM)
- MIC (Staphylococcus aureus [25]): 250 to 500 µg/mL (≈ 819 to 1640 µM)
- MIC (Escherichia coli [30]): 250 to 500 µg/mL (≈ 819 to 1640 µM)
- MIC (Bacillus spizizenii [31]): 250 to 500 µg/mL (≈ 819 to 1640 µM)

Compound: Cc1ccc2occ(-c3cc4ccccc4oc3=O)c2c1
- MIC (Pseudomonas aeruginosa [39]): 6.25 to 100 µg/mL (≈ 22.6 to 362 µM)
- MIC (Bacillus subtilis [40]): 0.4 µg/mL (≈ 1.45 µM)
- MIC (Staphylococcus aureus [41]): 0.2 µg/mL (≈ 0.724 µM)
- MIC (Escherichia coli [42]): 0.2 µg/mL (≈ 0.724 µM)
- Ratio (Bacillus subtilis [43]): >=5
- Ratio (Escherichia coli [44]): >=5
- Ratio (Staphylococcus aureus [45]): >=5

Compound: O=C1Nc2c(O)cccc2/C1=N/NC(=O)c1cc2ccccc2o1
- MIC (Proteus vulgaris [9]): 31.2 µg/mL (≈ 97.3 µM)
- Ratio (Proteus vulgaris [10]): 2
